According to US8815814B2, “Cosmetic composition containing oligopeptides” (Cognis IP Management GmbH, priority 2010, dated 2014):
Residues, ends and D or L forms follow the SMILES beside them.

Tests used:
collagen type I = experiment: Collagen type I immuno-staining (ICC) in cultured human dermal fibroblasts; type: cell-based; settings: peptide at 5.1 μg/ml; for % of staining occupation (collagen type I immuno-staining): human dermal fibroblasts, 72 hours incubation, sodium ascorbyl at 20 μg/ml, control 10.68 +/− 1, mean +/− SEM, 6 measures
Description: The peptide Acetyl-Val-Leu-Leu-Lys (SEQ ID NO:1)was incubated on human dermal fibroblasts cultured in vitro and the expression of the collagen type I was measured using an immunocytochemistry (ICC) method.
The human dermal fibroblasts were cultured within growth medium enriched with Foetal Calf Serum (FCS) at 10% and incubated for 2 days at 37° C. Then the growth medium was exchanged for a standard medium containing sodium ascorbyl at 5 μg/ml with FCS at 1% and with or without the Acetyl-Val-Leu-Leu-Lys (SEQ ID NO:1)peptide at 5.1 μg/ml. A positive control condition with sodium ascorbyl at 20 μg/ml was performed. Cells were incubated for 72 hours at 37° C. with the peptide. Cultured human dermal fibroblasts were fixed by acetone for 10 minutes at −20° C. and incubated for 1 hour at room temperature with a primary antibody against collagen type I [Abcam] diluted at 1/250. Fluorescein isothiocyanate (FITC) labelled secondary antibody [CliniSciences, France] was used for revelation. The obtained immuno-staining was observed using a confocal laser scanning microscope [TCS SPE, Leica, France] and quantified by an image analyzer [Quantimet Q5001W, Leica, France]. The staining occupation was evaluated. The results were presented as a mean +/−SEM (Standard Error of Mean) from 6 measures.

[1] = system: collagen type XIV gene (COL14A1); experiment: COL14A1 mRNA level by qRT-PCR in human dermal fibroblasts; type: cell-based; settings: peptide at 1.0 μg/ml; for level of COL14A1 mRNA (control = 100%): vs EEF1A1 housekeeping gene, mean +/− SEM
Description: The peptide Acetyl-Val-Leu-Leu-Lys (SEQ ID NO:1) was incubated on human dermal fibroblasts cultured in vitro and the expression of the collagen type XIV gene (COL14A1) was measured using a quantitative reverse-transcription and polymerase chain reaction (qRT-PCR) method.
(§1) The human dermal fibroblasts were cultured within growth medium enriched with FCS at 10% and incubated for 1 day at 37° C. Then the growth medium was exchanged for a standard medium without FCS but with or without the Acetyl-Val-Leu-Leu-Lys (SEQ ID NO:1) peptide at 1.0 μg/ml. Cells were then incubated for 24 hours, 48 hours or 72 hours at 37° C. before extraction of total RNA. The level of COL14A1 mRNAs in the different conditions was evaluated comparatively to the level of EEF1A1 mRNA as housekeeping gene (qRT-PCR method) for each condition.
The results were calculated through the level of COL14A1 mRNA measured in the control condition (without peptide treatment) for the different incubation times as 100% and presented as a mean+/−SEM from 3 or 5 assays in duplicate.

[2] = system: glutaredoxin-2 gene (GLRX2); experiment: GLRX2 mRNA level by qRT-PCR in human dermal fibroblasts; type: cell-based; settings: peptide at 1.0 μg/ml, 6 hours
Description: The peptide Acetyl-Val-Leu-Leu-Lys (SEQ ID NO:1) was incubated on human dermal fibroblasts cultured in vitro and the expression of the glutaredoxin-2 gene (GLRX2), involved in cellular anti-oxidative defenses) was measured using a qRT-PCR method.
as §1, with “FCS” for “FCS but”, “were” for “were then”, “6” for “24 hours, 48 hours or 72”, “GLRX2” for “COL14A1”, “mRNAs” for “mRNAs in the different conditions”, “HPRT1 (hypoxanthine phosphoribosyltransferase 1)” for “EEF1A1”
The results were calculated through the level of GLRX2 mRNA measured in the control condition (without peptide treatment) as 100% and presented as a mean +/−SEM from 3 assays in duplicated.

tropoelastin gene (ELN) = experiment: ELN mRNA level by qRT-PCR in human dermal fibroblasts; type: cell-based; settings: peptide at 1.0 μg/ml; for level of ELN mRNA (control = 100%): vs EEF1A1 housekeeping gene, mean +/− SEM
Description: The peptide Acetyl-Val-Leu-Leu-Lys (SEQ ID NO:1) was incubated on human dermal fibroblasts cultured in vitro and the expression of the tropoelastin gene (ELN) was measured using a qRT-PCR method.
as §1, with “were” for “were then”, “ELN” for “COL14A1”, “EEF1A 1” for “EEF1A1”, “condition. The results were calculated through the level of ELN mRNA measured in the control condition (without peptide treatment) as 100% and presented as a mean+/−SEM from 3 assays in duplicate.” for “condition.”

[3] = system: epithelial cells from rabbit cornea; settings: Hara et al., Exp Eye Res, 2001; cited from earlier work
injured rabbit cornea = settings: Hara et al., Exp Eye Res, 2001; cited from earlier work

Question: With Sodium ascorbyl [reference compound] as the molecule, how does the “% of staining occupation (collagen type I immuno-staining)” value (collagen type I) read?
Answer: Its value is 18.01 +/− 1.07 (**) %.

Question: For `CC(=O)N[C@H](C(=O)N[C@@H](CC(C)C)C(=O)N[C@@H](CC(C)C)C(=O)N[C@@H](CCCCN)C(=O)O)C(C)C` [Acetyl-Val-Leu-Leu-Lys, N-Acetyl-Val-Leu-Leu-Lys-OH] (Ac-VLLK-OH), which “% of staining occupation (collagen type I immuno-staining)” value (collagen type I) is on record?
Answer: Its value is 31.07 +/− 2.22 (**) %.

Question: And the “effect on the level of collagen type I (in words)” value (collagen type I; compared with sodium ascorbyl at 20 μg/ml)?
Answer: Its value is “significantly increased”.

Question: What about the “level of COL14A1 mRNA (control = 100%)” value ([1]; treatment duration 24 hours) of the same molecule?
Answer: The value was 175 +/− 23 (*) %.

Question: And the “level of COL14A1 mRNA (control = 100%)” value ([1]; treatment duration 48 hours)?
Answer: The value was 220 +/− 32 (*) %.

Question: And the “level of COL14A1 mRNA (control = 100%)” value ([1]; treatment duration 72 hours)?
Answer: Its value is 213 +/− 27 (*) %.

Question: And the “effect on the level of COL14A1 gene expression (in words)” value ([1]; detected after 24 hours, maintained during 3 days)?
Answer: Its value is “specifically and significantly increased”.

Question: And the “effect on the level of GLRX2 gene expression (in words)” value [2]?
Answer: The value was “specifically increased”.

Question: What about the “level of GLRX2 mRNA (control = 100%)” value ([2]; vs HPRT1 housekeeping gene, mean +/− SEM) of the same molecule?
Answer: The value was 145 +/− 20 (*) %.

Question: What about the “effect on the level of ELN gene expression (in words)” value (tropoelastin gene (ELN)) of the same molecule?
Answer: The value was “specifically and significantly increased”.

Question: What about the “level of ELN mRNA (control = 100%)” value (tropoelastin gene (ELN); treatment duration 24 hours) of the same molecule?
Answer: The value was 127 +/− 11 (*) %.

Question: And the “level of ELN mRNA (control = 100%)” value (tropoelastin gene (ELN); treatment duration 48 hours)?
Answer: Its value is 143 +/− 10 (*) %.

Question: And the “level of ELN mRNA (control = 100%)” value (tropoelastin gene (ELN); treatment duration 72 hours)?
Answer: The value was 217 +/− 49 (*) %.

Question: Which results are given for Val-Leu-Leu-His (VLLH; tetrapeptide)?
Answer: proliferation of epithelial cells from rabbit cornea (in words) [3]: stimulate proliferation; wound healing activity on injured rabbit cornea (in words) (injured rabbit cornea): significant wound healing activity
